Data published in patent publication US8575153B2 (Kowa Company, Ltd., priority 2008, dated 2013).
Where a name gives a salt, the structure may show the parent alone.

Biological target: Recombinant human JAK3 enzyme (JAK3 kinase region; Ala795-Ser1124) (Homo sapiens, UniProt P52333)
Test: JAK3 Kinase Assay (Kinase-Glo luminescent, ATP consumption)
Details: read-out: Inhibition rate (%) of JAK3 kinase activity
Protocol: Recombinant human JAK3 enzyme (JAK3 kinase region; Ala795-Ser1124) was purchased from Carna Biosciences, Inc.
The reaction was conducted in a kinase buffer (reaction volume: a total of 50 μl) containing 8 mM MOPS (pH 7.0), 0.2 mM EDTA, a test compound solution prepared to each concentration and 0.5 μg/ml JAK3 enzyme using a 96-well polystyrene plate (clear-bottom white-wall). […] After incubating them at room temperature for 2 hours, 50 μl of Kinase-Glo Luminescent Kinase Assay reagent (Promega) was added to each well, and further incubated at room temperature for 10 minutes. Using a chemiluminescence microplate reader MicroLumat LB96P (Berthold), chemiluminescence intensity was measured to quantitate the amount of ATP remaining after reaction. From the amount of ATP consumed in the phosphorylation reaction, the inhibition rate (%) of JAK3 kinase activity was determined.

Recombinant human JAK3 enzyme (JAK3 kinase region; Ala795-Ser1124), sequence (P52333 795-1124): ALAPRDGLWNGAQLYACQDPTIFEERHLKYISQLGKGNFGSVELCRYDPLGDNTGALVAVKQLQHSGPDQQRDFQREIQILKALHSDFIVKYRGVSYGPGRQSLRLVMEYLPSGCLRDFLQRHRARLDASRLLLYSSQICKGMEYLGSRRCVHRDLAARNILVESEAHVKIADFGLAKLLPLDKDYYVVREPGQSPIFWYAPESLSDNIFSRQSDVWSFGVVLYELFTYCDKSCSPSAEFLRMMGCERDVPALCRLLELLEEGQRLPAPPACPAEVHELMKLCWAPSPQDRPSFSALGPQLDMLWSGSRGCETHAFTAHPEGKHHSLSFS

| Structure (SMILES) | inhibition at 1 µM | inhibition at 0.1 µM |
| --- | --- | --- |
| NC(=O)c1cnc(Nc2ccc(N3CCOCC3)cc2)cc1NCc1cccnc1 [Example 353, 6-[(4-morpholinophenyl)amino]-4-[(pyridin-3-ylmethyl)amino}pyridine-3-carboxyamide] | 65% |  |
| NC(=O)c1cnc(Nc2ccc(N3CCC(C(=O)N(CCO)CCO)CC3)cc2)cc1NCc1ccccc1 [Example 177, 4-(benzylamino)-6-[(4-{4-[bis(2-hydroxyethyl)carbamoyl]piperidino}phenyl)amino]pyridine-3-carboxyamide] |  | 84% |
| NC(=O)c1cnc(Nc2ccc(N3CCC(O)CC3)cc2)cc1NCc1cc(F)ccc1F [Example 188, 4-[(2,5-difluorobenzyl)amino]-6-[(4-(4-hydroxypiperidino)phenyl]amino}pyridine-3-carboxyamide] |  | 89% |
| N#CCC(=O)N1CCCN(c2ccc(Nc3cc(NCc4ccccc4)c(C(N)=O)cn3)cc2)CC1 [Example 268, 4-(benzylamino)-6-({4-[4-(cyanoacetyl)-1,4-diazepan-1-yl]phenyl}amino)pyridine-3-carboxyamide] |  | 65% |
| NC(=O)c1cnc(Nc2ccc(N3CCOCC3)nc2)cc1NCc1ccccc1 [Example 373, 4-benzylamino-6-[(6-morpholinopyridin-3-yl)amino]pyridine-3-carboxyamide] | 81% |  |
| CN1CCN(c2ccc(Nc3cc(NCc4ccccc4)c(C(N)=O)cn3)cc2)CC1 [Example 145, 4-(benzylamino)-6-{[4-(4-methylpiperazin-1-yl)phenyl]amino}pyridine-3-carboxyamide] |  | 63% |
| NC(=O)c1cnc(Nc2ccc(N3CCNCC3)cc2)cc1NCc1c(F)cccc1F [Example 223, 4-[(2,6-difluorobenzyl)amino]-6-{[4-(piperazin-1-yl)phenyl]amino}pyridine-3-carboxyamide] |  | 81% |
| NC(=O)c1cnc(Nc2ccc(N3CCOCC3)cc2)cc1NCc1cccc(F)c1F [Example 90, 4-[(2,3-difluorobenzyl)amino]-6-[(4-morpholinophenyl)amino]pyridine-3-carboxyamide] |  | 77% |
| NC(=O)c1cnc(-n2cnc3ccccc32)cc1NCc1cc(F)cc(F)c1 [Example 365, 6-(1H-benzimidazol-1-yl)-4-[(3,5-difluorobenzyl)amino]pyridine-3-carboxyamide] | 62% |  |
| N#CCCN1CCN(c2ccc(Nc3cc(NCc4cc(F)cc(F)c4)c(C(N)=O)cn3)cc2)CC1 [Example 240, 6-({4-[4-(2-cyanoethyl)piperazin-1-yl]phenyl}amino)-4-[(3,5-difluorobenzyl)amino]pyridine-3-carboxyamide] |  | 85% |
| CC(C)N1CCN(c2ccc(Nc3cc(NCc4ccccc4)c(C(N)=O)cn3)cc2)CC1 [Example 146, 4-(benzylamino)-6-({4-[4-(propan-2-yl)piperazin-1-yl]phenyl}amino)pyridine-3-carboxyamide] |  | 78% |
| N#CCC(=O)N1CCN(c2ccc(Nc3cc(NCc4cccc(F)c4F)c(C(N)=O)cn3)cc2)CC1 [Example 263, 6-({4-[4-(cyanoacetyl)piperazin-1-yl]phenyl}amino)-4-[(2,3-difluorobenzyl)amino]pyridine-3-carboxyamide] |  | 98% |
| NC(=O)c1cnc(Nc2ccc(NCCO)cc2)cc1NCc1cc(F)cc(F)c1 [Example 234, 4-[(3,5-difluorobenzyl)amino]-6-({4-[(2-hydroxyethyl)amino]phenyl}amino)pyridine-3-carboxyamide] |  | 72% |
| COc1ccccc1CNc1cc(Nc2ccc(N3CCOCC3)cc2)ncc1C(N)=O [Example 73, 4-[(2-methoxybenzyl)amino]-6-[(4-morpholinophenyl)amino]pyridine-3-carboxyamide] |  | 56% |
| NC(=O)c1cnc(Nc2ccc(N3CCC(CCO)CC3)cc2)cc1NCc1cccc([N+](=O)[O-])c1 [Example 180, 6-({4-[4-(2-hydroxyethyl)piperidino]phenyl}amino)-4-[(3-nitrobenzyl)amino]pyridine-3-carboxyamide] |  | 63% |
| NC(=O)c1cnc(Nc2ccc(N3CCCN(CCO)CC3)cc2)cc1NCc1ccccc1 [Example 245, 4-(benzylamino)-6-({4-[4-(2-hydroxyethyl)-1,4-diazepan-1-yl]phenyl}amino)pyridine-3-carboxyamide] |  | 62% |
| CCN(CC)CCN1CCN(c2ccc(Nc3cc(NCc4cccc(F)c4F)c(C(N)=O)cn3)cc2)CC1 [Example 237, 6-[(4-{4-[2-(diethylamino)ethyl]piperazin-1-yl}phenyl)amino]-4-[(2,3-difluorobenzyl)amino]pyridine-3-carboxyamide] |  | 78% |
| NC(=O)c1cnc(Nc2ccc(N3CCNCC3)cc2)cc1NCc1cccc([N+](=O)[O-])c1 [Example 224, 4-[(3-nitrobenzyl)amino]-6-{[4-(piperazin-1-yl)phenyl]amino}pyridine-3-carboxyamide] |  | 68% |

| Structure (SMILES) | inhibition at 1 µM | inhibition at 0.1 µM |
| --- | --- | --- |
| C[C@@H]1CN(c2cccc(Nc3cc(NCc4cc(F)cc(F)c4)c(C(N)=O)cn3)c2)C[C@H](C)N1 [Example 144, 4-[(3,5-difluorobenzyl)amino]-6-({3-[(3R,5S)-3,5-dimethylpiperazin-1-yl]phenyl}amino) pyridine-3-carboxyamide] |  | 61% |
| CC(C)N1CCN(c2cccc(Nc3cc(NCc4cc(F)cc(F)c4)c(C(N)=O)cn3)c2)CC1 [Example 155, 4-[(3,5-difluorobenzyl)amino]-6-({3-[4-(propan-2-yl)piperazin-1-yl]phenyl}amino)pyridine-3-carboxyamide] |  | 59% |
| NC(=O)c1cnc(Nc2ccc(N3CCC(C(=O)NCCO)CC3)cc2)cc1NCc1ccccc1 [Example 176, 4-(benzylamino)-6-[(4-{4-[(2-hydroxyethyl)carbamoyl]piperidino}phenyl)amino]pyridine-3-carboxyamide] |  | 86% |
| NC(=O)c1cnc(Nc2ccc(N3CCNCC3)cc2)cc1NCc1cc(F)ccc1F [Example 222, 4-[(2,5-difluorobenzyl)amino]-6-{[4-(piperazin-1-yl)phenyl]amino}pyridine-3-carboxyamide] |  | 78% |
| N#CCC(=O)N1CCN(c2ccc(Nc3cc(NCc4cc(F)ccc4F)c(C(N)=O)cn3)cc2)CC1 [Example 265, 6-({4-[4-(cyanoacetyl)piperazin-1-yl]phenyl}amino)-4-[(2,5-difluorobenzyl)amino]pyridine-3-carboxyamide] |  | 74% |
| CS(=O)(=O)N1CCN(c2ccc(Nc3cc(NCc4cc(F)cc(F)c4)c(C(N)=O)cn3)cc2)CC1 [Example 293, 4-[(3,5-difluorobenzyl)amino]-6-({4-[4-(methylsulfonyl)piperazin-1-yl]phenyl}amino)pyridine-3-carboxyamide] |  | 61% |
| CC(=O)N1CCCC1CNc1cc(Nc2ccc(N3CCOCC3)cc2)ncc1C(N)=O (stereo not drawn) [Example 360, 4-{[(1-acetylpyrrolidin-2-yl)methyl]amino}-6-[(4-morpholinophenyl)amino]pyridine-3-carboxyamide] | 57% |  |
| CCN(CC)CCN1CCN(c2ccc(Nc3cc(NCc4cc(F)cc(F)c4)c(C(N)=O)cn3)cc2)CC1 [Example 238, 6-[(4-{4-[2-(diethylamino)ethyl]piperazin-1-yl}phenyl)amino]-4-[(3,5-difluorobenzyl)amino]pyridine-3-carboxyamide] |  | 100% |
| NC(=O)c1cnc(Nc2cccc(N3CCNCC3)c2)cc1NCc1cc(F)cc(F)c1 [Example 225, 4-[(3,5-difluorobenzyl)amino]-6-{[3-(piperazin-1-yl)phenyl]amino}pyridine-3-carboxyamide] |  | 74% |
| C[C@@H]1CN(c2ccc(Nc3cc(NCc4cc(F)cc(F)c4)c(C(N)=O)cn3)cc2)C[C@H](C)N1 [Example 141, 4-[(3,5-difluorobenzyl)amino]-6-({4-[(3R,5S)-3,5-dimethylpiperazin-1-yl]phenyl}amino) pyridine-3-carboxyamide] |  | 83% |
| NC(=O)c1cnc(Nc2ccc(NC(=O)[C@@H]3CCCN3)cc2)cc1NCc1cc(F)cc(F)c1 [Example 317, 4-[(3,5-difluorobenzyl)amino]-6-{[4-(L-prolylamino)phenyl]amino}pyridine-3-carboxyamide hydrochloride] |  | 62% |
| Cc1ccccc1CNc1cc(Nc2ccc(N3CCC(O)CC3)cc2)ncc1C(N)=O [Example 185, 4-[(2-methylbenzyl)amino]-6-{[4-(4-hydroxypiperidino)phenyl]amino}pyridine-3-carboxyamide] |  | 87% |
| CCN(CC)CC(=O)N1CCN(c2ccc(Nc3cc(NCc4cccc(F)c4F)c(C(N)=O)cn3)cc2)CC1 [Example 205, 6-({4-[4-(N,N-diethylglycyl)piperazin-1-yl]phenyl}amino}-4-[(2,3-difluorobenzyl)amino]pyridine-3-carboxyamide] |  | 98% |
| NC(=O)c1cnc(Nc2ccc(C(=O)O)cc2)cc1NCc1cc(F)cc(F)c1 [Example 332, 6-[(4-carboxyphenyl)amino]-4-[(3,5-difluorobenzyl)amino]pyridine-3-carboxyamide] |  | 69% |
| N#CCC(=O)N1CCN(c2ccc(Nc3cc(NCc4cc(F)cc(F)c4)c(C(N)=O)cn3)cc2)CC1 [Example 264, 6-({4-[4-(cyanoacetyl)piperazin-1-yl]phenyl}amino)-4-[(3,5-difluorobenzyl)amino]pyridine-3-carboxyamide] |  | 92% |
| NC(=O)c1cnc(Nc2ccc(N3CCOCC3)cc2)cc1NCC1CCCCC1 [Example 361, 4-[(cyclohexylmethyl)amino]-6-[(4-morpholinophenyl)amino]pyridine-3-carboxyamide] | 83% |  |
| CC(C)N1CCN(c2ccc(Nc3cc(NCc4cc(F)cc(F)c4)c(C(N)=O)cn3)cc2)CC1 [Example 151, 4-[(3,5-difluorobenzyl)amino]-6-({4-[4-(propan-2-yl)piperazin-1-yl]phenyl}amino)pyridine-3-carboxyamide] |  | 69% |
| NC(=O)c1cnc(Nc2ccc(N3CCC(CCO)CC3)cc2)cc1NCc1cccc(F)c1F [Example 178, 4-[(2,3-difluorobenzyl)amino]-6-({4-{4-(2-hydroxyethyl)piperidino]phenyl}amino)pyridine-3-carboxyamide] |  | 90% |
